In patent publication US8273708B2, “Methods of treatment of ocular surface pathologies” (priority 2004, dated 2012):
Entries after “also recorded” stand apart in the source; their conditions may differ.

Key:
Format in all cases: in vivo, rat
[1] = system: male Wistar rats; assay: Ocular inflammation (neutrophil infiltration) induced by corneal instillation of benzalkonium chloride: total MPO activity in the eye
Procedure: FIG. 3: Experimental protocol for example 2. Animals received two pretreatments with ML-7 [1 mg/kg given by the intraperitoneal (IP) route] on the day before instillation of 0.1% BAK (in the morning and evening) and one pretreatment two hours before instillation. They were sacrificed six hours after rinsing and the eyes were excised in order to assay MPO activity.
The benzalkonium salt (BAK) corneal irritation model has been widely used in both in vitro and in vivo studies. The protocol is based on an in vitro study (Xu et al., 2000) adapted to in vivo conditions in the rat after preliminary tests to adjust times and concentrations.
Animals: Male Wistar rats (200-250 g) housed in individual cages were used. Animals were given a standard diet (UAR, Villemoisson, Epinay sur Orge) and drinking water ad libitum.
Inflammation induction: Inflammation was induced by instillation in the eye of 10 μl of 0.1% BAK solution (1 mg/ml). The control eye was instilled with 10 μl of 1×PBS. Ten minutes after instillation, the eyes were rinsed with 1 ml of sterile water.
(§1) Assay of myeloperoxidase activity: The eyes were excised and homogenized in phosphate buffer with the aid of a polytron. They were then subjected to three freeze/thaw cycles (liquid nitrogen/37° C. water bath). After centrifugation at 10,000 rpm for 15 min at 4° C., the pellets were resuspended in HTAB buffer and sonicated for 10 sec. After a second centrifugation, MPO activity was assayed in the supernatant in a reaction buffer containing O-dianisidine hydrochloride and 0.0005% hydrogen peroxide. The change in absorbance at 460 nm was measured on a spectrophotometer.
Experimental protocol: Animals received two pretreatments with ML-7 (1 mg/kg IP) on the day before instillation of 0.1% BAK (morning and evening) and one pretreatment two hours before instillation. They were sacrificed six hours after rinsing and the eyes were excised in order to assay total myeloperoxidase (MPO) activity (FIG. 3).

[2] = system: corneal epithelial tight junctions; assay: Corneal tight junction permeability by surface biotinylation after benzalkonium chloride
Source text: Images obtained by fluorescence of the external corneal surface in the rat after ex vivo avidin-fluorescein biotinylation of the whole eye by avidin-fluorescein following cryosection (6 μm) (external side of cornea facing up)
(§2) Animals: Four groups of male Wistar rats (Janvier, Le Genest St Isle, France), weighing 300-350 g were used: BAK+sodium carmellose, BAK+ML-7, PBS+sodium carmellose, PBS+ML-7; PBS and sodium carmellose being the solvents for benzalkonium (BAK) and ML-7, respectively.
(§3) ML-7 pretreatment: Animals received a local application of ML-7 (Sigma, France) 24 hours, 12 hours and 30 minutes before chemical induction of ocular inflammation. Thus, each eye was treated with 100 μg of ML-7 in 10 μl of eye drops (sodium carmellose 4 mg/0.4 ml) or with 10 μl of eye drops alone.
(§4) Inflammation induction: Thirty minutes after the third application of ML-7 or the eye drops alone, each eye was treated with 10 μl of 0.5% benzalkonium chloride (Sigma-Aldrich, Steinheim, Germany) in PBS or 10 μl of PBS alone. After 10 minutes, the eyes of all the rats were rinsed with 250 μl of sterile water.
(§5) Eye excision: Six hours after application of benzalkonium chloride or PBS, the animals were anesthetized with pentobarbital (80 mg/kg IP) (Ceva Santé Animale, Libourne, France), sacrificed by decapitation and the eyes were immediately excised to be frozen directly or after surface biotinylation (tight junction permeability test).
Measurement of tight junction permeability—Surface biotinylation: The permeability of tight junctions in the cornea was evaluated by biotinylation of surface proteins. The chosen biotinylation reagent is water-soluble and contains an aminocaproyl spacer group, which lowers steric hindrance during avidin coupling. Immediately after excision, the eyes were incubated for 30 minutes at room temperature with gentle stirring in a solution containing sodium biotinamidohexanecarboxylate and 3-sulfó-N-hydroxysuccinimide at 1 mg/mL, in PBS (Sigma-Aldrich, Steinheim, Germany). The eyes were then rinsed three times in PBS, embedded in protective tissue freezing medium (Tissue Tek® OCT compound, Sakura Finetek, Inc., CA, USA), frozen in liquid nitrogen and stored at −80° C. Six micrometer thick slices were prepared with a cryostat and fixed in cold acetone for 10 minutes. After drying, the slices were labelled for 30 minutes in the dark with avidin D-FITC (Vector Laboratories, Inc., Burlingame, Calif., USA) diluted 250-fold in PBS-Tween containing 1% BSA, then rinsed three times for 5 minutes in PBS-Tween, in the dark. The slides were then mounted in fluorescence medium (Cappel fluorostab embedding medium, MP Biomedicals, Inc., Aurora, Ohio, USA) and examined under a Nikon Eclipse 90 i fluorescence microscope equipped with a Nikon DXM1200F digital camera. The images were analyzed with Nikon Lucia image analysis software release 4.8. As no significant differences in corneal thickness were observed between the different experimental groups (102±10 μm, 110±9 μm, 115±13 μm and 124±8 μm for BAK+sodium carmellose, BAK+ML-7, PBS+sodium carmellose and PBS+ML-7 groups, respectively), the depth of fluorescence labelling reflects the permeability of external corneal epithelial tight junctions to the biotinylation reagent.

[3] = system: male Wistar rats; assay: Ocular inflammation induced by corneal instillation of P48/80: total MPO activity in the whole eye; conditions: ML-7 1 mg/kg IP, two pretreatments the day before and one two hours before instillation
Procedure: FIG. 1: Experimental protocol for example 1.
The corneal irritation model which was used has been validated in the rat (Allansmith et al., Acta Ophtalmol, 1989; 192S: 145-153) and in the rabbit (Bucolo et al., J. Ocul. Pharmacol, 1993; 9: 321-332).
Animals: Three groups of eight male Wistar rats (200-250 g) housed in individual cages were used. Animals were given a standard diet (UAR, Villemoisson, Epinay sur Orge) and drinking water ad libitum.
The control eye was instilled with 10 μl of 1×PBS.
as §1, with “assayed from” for “assayed in”
They were sacrificed six hours after instillation and the eyes were excised in order to assay total myeloperoxidase (MPO) activity in the whole eye (FIG. 1).

[4] = system: male Wistar rats; assay: Polynuclear eosinophil infiltration induced by benzalkonium chloride, Direct Red count in the venous plexus region of the sclera; conditions: for number of polynuclear eosinophils in the venous plexus region of the sclera after benzalkonium chloride: 10 μl of 0.5% benzalkonium chloride, after six hours
Source text: Upper panel: histological images after Direct Red staining. Lower panel: eosinophil count in venous plexus of sclera, density per square mm (means±SD; n=8)
as §2, §3, §4, §5
Measurement of polynuclear eosinophil infiltration: Polynuclear eosinophil leukocytes were specifically stained with Direct Red and counted in the venous plexus region of the sclera. […] Eosinophils, stained bright pink against a light background, were counted in the venous plexus region of the sclera under a Nikon Eclipse 90 i microscope equipped with a Nikon DXM1200F digital camera. The area of the zone to be counted was determined with Nikon Lucia image analysis software release 4.8 and counts were expressed as the number of eosinophils per mm^2. […]

Row | corneal thickness ([2]; BAK+ML-7 group) | corneal thickness ([2]; PBS+ML-7 group) | total MPO activity in the eye after benzalkonium chloride ([1]; 10 μl of 0.1% BAK, rinsed after 10 minutes, after six hours) | increase in total MPO activity after benzalkonium chloride ([1]; versus baseline 8.2±1.9 U/g.protein, after six hours) | corneal thickness ([2]; BAK+sodium carmellose group) | number of polynuclear eosinophils in the venous plexus region of the sclera after benzalkonium chloride [4] | number of polynuclear eosinophils in the venous plexus region of the sclera after benzalkonium chloride ([4]; listed as BAK) | Molecule | effect of ML-7 on the benzalkonium chloride-induced increase in MPO activity ([1]; ML-7 1 mg/kg IP, two pretreatments the day before and one two hours before instillation) | effect of ML-7 on the BAK-induced increase in diffusion and thickening of the fluorescent zone ([2]; local pretreatment, 100 μg ML-7 per eye, 24 hours, 12 hours and 30 minutes before BAK) | effect of ML-7 on the P48/80-induced increase in MPO activity [3] | effect of ML-7 on benzalkonium chloride-induced polynuclear eosinophil infiltration ([4]; local application, 100 μg ML-7 in 10 μl eye drops, 24 hours, 12 hours and 30 minutes before BAK) | effect of benzalkonium chloride on corneal epithelial tight junctions (fluorescent penetration) ([2]; 10 μl of 0.5% benzalkonium chloride, after six hours)
1 | 110±9 μm | 124±8 μm |  |  |  |  |  | O=S(=O)(c1cccc2c(I)cccc12)N1CCCNCC1 [ML-7, 1-(5-iodonaphthalene-1-sulfonyl)-1H-hexahydro-1,4-diazepine] | suppressed; also recorded: inhibited | suppressed | prevented; also recorded: inhibited | significantly inhibited | 
2 |  |  | 26.4±7.2 U/g.protein | 321% | 102±10 μm | highly significant increase | highly significant | benzalkonium chloride |  |  |  |  | opening of corneal epithelial tight junctions
